This is an account of results in patent US20100196476A1, “PROCESS FOR THE PREPARATION AND PHARMACEUTICAL FORMULATIONS FOR 4-QUINOLINONES AND QUINOLINES AND USE THEREOF” (FUNDACAO UNIVERSIDADE FEDERAL DE SAO CARLOS, priority 2007, published 2010).

The target of assay [1] is T1, Lys49 BthTX-I phospholipase A2 (Bothrops jararacussu, UniProt Q90249).
T1 construct: isolated myotoxins (BthTX-I and II); from tissue; host or cells: venom of B. jararacussu
Kind of assay: myotoxic activity in mice, BthTX-I. It counts as in vivo, B. jararacussu.

The target in assay [2] is T2, Asp49 BthTX-II phospholipase A2 (Bothrops jararacussu, UniProt P45881).
T2 construct: isolated myotoxins (BthTX-I and II); from tissue; host or cells: venom of B. jararacussu
T2 sequence (P45881 17-138): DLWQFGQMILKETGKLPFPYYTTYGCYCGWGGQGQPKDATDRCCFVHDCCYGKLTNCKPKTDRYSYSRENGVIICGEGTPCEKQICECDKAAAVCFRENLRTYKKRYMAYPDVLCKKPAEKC
The assay is described as follows: myotoxic activity in mice, BthTX-II. It counts as in vivo, B. jararacussu.

For assay [3], the target named is T3, Class III metalloprotease BjussuMP-I (Bothrops jararacussu, UniProt Q1PHZ4).
T3 construct: BjussuMP-I isolated from B. jararacussu; from tissue; host or cells: venom of B. jararacussu
T3 sequence (Q1PHZ4 134-547): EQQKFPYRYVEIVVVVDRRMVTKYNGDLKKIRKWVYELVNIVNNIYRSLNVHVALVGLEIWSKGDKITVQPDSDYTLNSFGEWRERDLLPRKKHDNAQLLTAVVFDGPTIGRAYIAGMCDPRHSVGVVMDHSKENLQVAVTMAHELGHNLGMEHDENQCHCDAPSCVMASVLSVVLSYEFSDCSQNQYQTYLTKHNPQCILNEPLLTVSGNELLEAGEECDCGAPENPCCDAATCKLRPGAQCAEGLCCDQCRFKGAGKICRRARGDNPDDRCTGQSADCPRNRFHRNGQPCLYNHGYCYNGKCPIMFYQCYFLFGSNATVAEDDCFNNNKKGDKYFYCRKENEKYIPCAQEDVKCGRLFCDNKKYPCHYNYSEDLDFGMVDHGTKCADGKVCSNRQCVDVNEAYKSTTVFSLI
Kind of assay: proteolytic activity in casein, BjussuMP-I. The following applies: ratio of 1:10 protease:inhibitor (m/m). It counts as biochemical, B. jararacussu.

T1 sequence (Q90249 17-137 limits assumed): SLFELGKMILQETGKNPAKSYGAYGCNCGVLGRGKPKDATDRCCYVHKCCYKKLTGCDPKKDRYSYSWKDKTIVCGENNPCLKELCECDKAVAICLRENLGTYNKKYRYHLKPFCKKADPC

In the case of `COc1ccc2[nH]c(CO)cc(=O)c2c1` [Compound 2, 2-hydroxymethyl-6-methoxy-1,4-dihydro-4-quinolinone], the “effect on myotoxic activity” value in assay [1] and in assay [2] was “inhibited” throughout. Besides, the “inhibition of proteolytic activity” value in assay [3] is recorded as ~70%.
